According to PMC10353390, “Biological and Structural Analyses of New Potent Allosteric Inhibitors of HIV-1 Integrase” (Antimicrobial Agents and Chemotherapy, 2023):
Read-outs that look alike come from different tables or passages of the source.

Columns and labels:
HXB2 HIV-1 strain = assay: Multiple-round infection assay in MT4 cells, HXB2; assay type: cell-based; conditions: Human immunodeficiency virus 1, HXB2; multiple-round infection, MT4 cells; mean ± SD, n > 5; read-out: EC50 HXB2
Procedure: Antiretroviral activity of BDM-2 and its analogs was first evaluated in lymphoblastoid cell line MT4 and in primary human T lymphocytes using NL4-3 and HXB2 laboratory HIV-1 isolates.
(§1) MT4 cells growing exponentially at the density of 10^6/mL were infected with HIV-1 strain NL4-3 at a multiplicity of infection (MOI) of 0.001 for 2 h in the presence of different concentrations of compounds, and the CellTiter-Glo luminescent reagent (Promega) was used to quantify cell viability as described previously ([12]).

NL4-3 HIV-1 strain = assay: Multiple-round infection assay in MT4 cells, NL4-3; assay type: cell-based; conditions: MT4 cells
[1] = Cytotoxicity assay in MT4 cells; assay type: cell-based; conditions: human, MT4 cells (proliferating human T-cell line), CellTiter-Glo
Source text: Growth inhibition was monitored in a proliferating human T-cell line (MT4) with different concentrations of compounds, using the CellTiter-Glo luminescent reagent (Promega), as previously described ([12]).

[2] = test system: lab-adapted and clinical HIV-1 isolates; assay: Infection assays in primary T CD4+ lymphocytes; assay type: cell-based; conditions: Human immunodeficiency virus 1, Lymphocyte
[3] = test system: VSV-G-pseudotyped NL4-3Δenv-luc; assay: microbe, parasite or virus in culture; assay type: cell-based, HIV-1
[4] = test system: recombinant NL4-3 viruses with polymorphisms at IN positions 124 and 125; assay: Multiple-round infection of MT4 cells with recombinant NL4-3 viruses polymorphic at IN positions 124 and 125; assay type: cell-based, HIV-1
Source text: Located on the HIV-1 IN CCD dimerization interface, the principal INLAI binding pocket overlaps with a hot spot of amino acid sequence polymorphism involving IN residues 124 and 125 ([16]). To test if the new INLAIs maintained antiviral activity against major polymorphisms, we introduced all major combinations of residues found in circulating HIV-1 strains at positions 124 and 125 into NL4-3 HIV-1 molecular clone. In total, we evaluated 15 such combinations that collectively covered 98% of all HIV-1 clade polymorphisms involving these positions ([48]). To gauge effects on the antiviral activity, we calculated the EC50 fold change (FC) relative to wild type NL4-3 HIV-1 strain that features Thr124 and Thr125 (TT; specific polymorphisms are referred to by a single letter amino acid code).
as §1

[5] = test system: primary HIV-1 isolates with polymorphisms at IN positions 124 and 125; assay: Multiple-round infection of MT4 cells with primary HIV-1 isolates polymorphic at IN positions 124 and 125; assay type: cell-based; conditions: primary isolate
Procedure: Next, we evaluated the potency of the BDM-2 series of INLAIs against several primary HIV-1 isolates with polymorphisms at IN positions 124 and 125.
as §1

[6] = test system: HIV-1 strains resistant to INSTIs, NRTIs, NNRTIs or PIs; assay type: cell-based
Procedure: To this end, we used both recombinant viruses constructed by introducing described drug resistance mutations into NL4-3 HIV-1 clone as well as drug-resistant clinical HIV-1 isolates.
as §1

[7] = INSTI-resistant, NL4-3 background
[8] = INSTI-resistant, primary patient-derived strain

Structure (SMILES): C[C@@H]1CCO[C@H]2Cn3cc(C(=O)NCc4ccc(F)cc4F)c(=O)c(O)c3C(=O)N12 [DTG, dolutegravir, reference compound]
- EC50 (HXB2 HIV-1 strain): 1.9 ± 1 nM
- EC90 (NL4-3 HIV-1 strain; Human immunodeficiency virus 1, NL43, multiple-round infection, from dose response curves, read-out: EC90 NL4-3): 6.3 ± 4.4 nM
- EC50 (NL4-3 HIV-1 strain; Human immunodeficiency virus 1, NL43, multiple-round infection, mean ± SD, n > 5, read-out: EC50 NL4-3): 2.7 ± 1.3 nM
- Selectivity index CC50/EC50 NL4-3 (NL4-3 HIV-1 strain): 18,888
- CC50 [1]: 51000 ± 28000 nM
- EC50 ([2]; read-out: EC50 33913N (B)): 0.35 ± 0.42 nM
- EC50 ([2]; read-out: EC50 HXB2 (B)): 0.17 ± 0.01 nM
- EC50 ([2]; read-out: EC50 KER2008 (A)): 0.4 ± 0.21 nM
- EC50 ([2]; read-out: EC50 NL4-3 (B)): 0.53 ± 0.16 nM
- EC50 ([2]; read-out: EC50 NP1525 (CRF01_AE)): 0.21 ± 0.09 nM
- EC50 ([2]; read-out: EC50 NP1538 (B)): 0.29 ± 0.13 nM
- EC50 ratio (single/multiple-round infection) [3]: 0.16
- EC50 ([3]; Human immunodeficiency virus 1, NL43, MT4, read-out: EC50 in single-round infection): 0.44 ± 0.13 nM
- Fold change in EC50 relative to parental NL4-3, AA ([4]; recombinant NL4-3, IN 124/125 AA): 1
- Fold change in EC50 relative to parental NL4-3, AM ([4]; recombinant NL4-3, IN 124/125 AM): 2
- Fold change in EC50 relative to parental NL4-3, AT ([4]; recombinant NL4-3, IN 124/125 AT): 1
- Fold change in EC50 relative to parental NL4-3, AV ([4]; recombinant NL4-3, IN 124/125 AV): 2
- Fold change in EC50 relative to parental NL4-3, GA ([4]; recombinant NL4-3, IN 124/125 GA): 2
- Fold change in EC50 relative to parental NL4-3, GT ([4]; recombinant NL4-3, IN 124/125 GT): 2
- Fold change in EC50 relative to parental NL4-3, NA ([4]; recombinant NL4-3, IN 124/125 NA): 1
- Fold change in EC50 relative to parental NL4-3, NT ([4]; recombinant NL4-3, IN 124/125 NT): 1
- Fold change in EC50 relative to parental NL4-3, NV ([4]; recombinant NL4-3, IN 124/125 NV): 2
- Fold change in EC50 relative to parental NL4-3, SA ([4]; recombinant NL4-3, IN 124/125 SA): 1
- Fold change in EC50 relative to parental NL4-3, ST ([4]; recombinant NL4-3, IN 124/125 ST): 2
- Fold change in EC50 relative to parental NL4-3, TA ([4]; recombinant NL4-3, IN 124/125 TA): 1
- Fold change in EC50 relative to parental NL4-3, TM ([4]; recombinant NL4-3, IN 124/125 TM): 2
- Fold change in EC50 relative to parental NL4-3, TV ([4]; recombinant NL4-3, IN 124/125 TV): 2
- Fold change in EC50 relative to parental NL4-3, CAM2BBY (CRF02) ([5]; IN 124/125 AA): 1
- Fold change in EC50 relative to parental NL4-3, E0836M4 (D) ([5]; IN 124/125 AA): 2
- Fold change in EC50 relative to parental NL4-3, KER2008 (A) ([5]; IN 124/125 AA): 1
- Fold change in EC50 relative to parental NL4-3, NP1525 (CRF01) ([5]; IN 124/125 AA): 2
- Fold change in EC50 relative to parental NL4-3, NP1695 (CRF02) ([5]; IN 124/125 AA): 2
- Fold change in EC50 relative to parental NL4-3, TZA125 (C) ([5]; IN 124/125 AA): 2
- Fold change in EC50 relative to parental NL4-3, KSM4030 (A) ([5]; IN 124/125 GA): 2
- Fold change in EC50 relative to parental NL4-3, vGA (C) ([5]; IN 124/125 GA): 2
- Fold change in EC50 relative to parental NL4-3, 99ET14 (C) ([5]; IN 124/125 NA): 2
- Fold change in EC50 relative to parental NL4-3, NP1538 (B) ([5]; IN 124/125 NA): 1
- Fold change in EC50 relative to parental NL4-3, vNA_1 (B) ([5]; IN 124/125 NA): 2
- Fold change in EC50 relative to parental NL4-3, vNA_2 (CRF02) ([5]; IN 124/125 NA): 2
- Fold change in EC50 relative to parental NL4-3, vNV (B) ([5]; IN 124/125 NV): 1
- Fold change in EC50 relative to parental NL4-3, vSA_1 (B) ([5]; IN 124/125 SA): 1
- Fold change in EC50 relative to parental NL4-3, vSA_2 (CRF02) ([5]; IN 124/125 SA): 2
- Fold change in EC50 relative to parental NL4-3, vTA_1 (B) ([5]; IN 124/125 TA): 1
- Fold change in EC50 relative to parental NL4-3, vTA_2 (CRF02) ([5]; IN 124/125 TA): 1
- Fold change in EC50 relative to NL4-3, G140S [6, 7]: 0.6
- Fold change in EC50 relative to NL4-3, G140S/Q148H [6, 7]: 2
- Fold change in EC50 relative to NL4-3, N155H [6, 7]: 0.3
- Fold change in EC50 relative to NL4-3, Q148H [6, 7]: 0.3
- Fold change in EC50 relative to NL4-3, Y143R [6, 7]: 0.4
- Fold change in EC50 relative to NL4-3, E92Q/N155H (pat.) [6, 8]: 1
- Fold change in EC50 relative to NL4-3, G140S/Q148H (pat.) [6, 8]: 3
- Fold change in EC50 relative to NL4-3, T97A/N155H (pat.) [6, 8]: 3
- Fold change in EC50 relative to NL4-3, NLAY351717 ([6]; NRTI-resistant clone): 0.4
- Fold change in EC50 relative to NL4-3, NLAY351753 ([6]; NRTI/NNRTI-resistant clone): 1
- Fold change in EC50 relative to NL4-3, K103N/Y181C ([6]; NRTI/NNRTIs group, NL4-3 background): 0.3
- Fold change in EC50 relative to NL4-3, ARP-4595 ([6]; PI-resistant virus): 1
- Fold change in EC50 relative to NL4-3, ARP-4596 ([6]; PI-resistant virus): 0.5
- Fold change in EC50 relative to NL4-3, ARP-11801 ([6]; PI-resistant virus): 1
- Fold change in EC50 relative to NL4-3, ARP-11803 ([6]; PI-resistant virus): 1
- Fold change in EC50 relative to NL4-3, ARP-11807 ([6]; PI-resistant virus): 2
- Fold change in EC50 relative to NL4-3, ARP-11808 ([6]; PI-resistant virus): 1
